Active and inactive are the calls of the source. The calls are words filed in the database; no cut-off is given here.
Columns and labels:
MDA-MB-231 [1] = experiment: Induction of apoptosis in human MDA-MB-231 cells assessed as proportion of late apoptotic cells at 2.5 uM measured after 5 hrs by AnnexinV-FITC/PI staining based flow cytometry (reference value: 2.55%); format: functional
MDA-MB-231 [2] = experiment: Induction of apoptosis in human MDA-MB-231 cells assessed as PARP cleavage measured after 6 hrs by western blot analysis; format: functional, cell-based; details: dose 0.5-5 µM
SW-620 = experiment: Antiproliferative activity against human SW620 cells assessed as inhibition of cell growth measured after 24 hrs by MTT assay; format: functional, cell-based; details: SW-620, 24 h
MDA-MB-231 [3] = experiment: Induction of apoptosis in human MDA-MB-231 cells assessed as increase in cleaved caspase-3 expression at 1 uM measured after 6 hrs by confocal microscopy; format: functional, cell-based
[4] = Toxicity in BALB/c mouse xenografted with human MDA-MB-231 cells assessed as morphological changes in kidney at 10 mg/kg, ip qd for 16 days by Hematoxylin-Eosin staining based analysis; format: organism-based; details: in vivo, 384 h, time 16 day
HeLa = experiment: Antiproliferative activity against human HeLa cells transfected with Nur77 siRNA assessed as inhibition of cell growth measured after 24 hrs by MTT assay; format: functional, cell-based
MDA-MB-231 [5] = experiment: Induction of apoptosis in human MDA-MB-231 cells transfected with Nur77 siRNA assessed as late apoptotic cells at 1 uM measured after 6 hrs by AnnexinV-FITC/PI staining based flow cytometry (reference value: 3.97%); format: functional
[6] = Selectivity index, ratio of IC50 for cytotoxicity against human MCF-10A cells to IC50 for antiproliferative activity against human T47D cells; format: toxicity, cell-based; details: MCF-10A cells versus T47D cells, read-out: Ratio IC50
[7] = target: T1, Nuclear receptor subfamily 4immunitygroup A member 1 (Homo sapiens, UniProt P22736); experiment: Modulation of Nur77 in human MDA-MB-231 cells assessed as increase in TP53 phosphorylation at Ser37 residue at 0.31 to 5 uM measured after 6 hrs by western blot analysis; format: cell-based; details: filed as modulator, dose 0.31-5 µM
T1 sequence (P22736 whole entry): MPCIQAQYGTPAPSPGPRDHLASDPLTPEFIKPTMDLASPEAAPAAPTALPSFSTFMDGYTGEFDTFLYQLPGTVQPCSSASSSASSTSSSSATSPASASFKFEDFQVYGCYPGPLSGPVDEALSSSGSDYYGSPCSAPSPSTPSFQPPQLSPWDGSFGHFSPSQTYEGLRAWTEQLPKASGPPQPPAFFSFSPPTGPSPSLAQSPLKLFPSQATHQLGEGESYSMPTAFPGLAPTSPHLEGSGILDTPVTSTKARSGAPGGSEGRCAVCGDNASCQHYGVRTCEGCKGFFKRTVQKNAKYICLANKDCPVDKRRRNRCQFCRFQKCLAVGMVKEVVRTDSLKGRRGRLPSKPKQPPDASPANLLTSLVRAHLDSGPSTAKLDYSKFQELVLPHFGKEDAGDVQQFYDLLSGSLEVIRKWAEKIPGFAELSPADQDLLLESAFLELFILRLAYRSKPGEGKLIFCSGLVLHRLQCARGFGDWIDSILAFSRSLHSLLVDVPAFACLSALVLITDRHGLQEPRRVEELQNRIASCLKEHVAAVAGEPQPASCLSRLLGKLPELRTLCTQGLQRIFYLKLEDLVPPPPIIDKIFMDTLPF

MDA-MB-231 [8] = experiment: Induction of apoptosis in human MDA-MB-231 cells assessed as proportion of early apoptotic cells at 2.5 uM measured after 5 hrs by AnnexinV-FITC/PI staining based flow cytometry (reference value: 3.35%); format: functional
MDA-MB-231 [9] = experiment: Antitumor activity against human MDA-MB-231 cells xenografted in BALB/c mouse assessed as increase in cleaved caspase-3 expression in tumor at 10 mg/kg, ip qd for 16 days by immunohistochemical staining based analysis; format: functional, organism-based; details: time 16.0 day
[10] = Toxicity in Zebra fish AB embryo assessed as induction of morphological abnormalities at 1.25 uM measured after 24 to 72 hrs; set-up: species or system Danio rerio; details: zebrafish, time 24-72 hrs
MCF7 = experiment: Antiproliferative activity against human MCF7 cells assessed as inhibition of cell growth measured after 24 hrs by MTT assay; format: functional, cell-based; details: MCF7, 24 h
[11] = Toxicity in BALB/c mouse xenografted with human MDA-MB-231 cells assessed as body weight loss at 10 mg/kg, ip qd for 16 days; format: organism-based; details: in vivo, 384 h, time 16 day
MDA-MB-231 [12] = experiment: Induction of apoptosis in human MDA-MB-231 cells assessed as PARP cleavage at 2.5 uM pretreated with caspase inhibitor, Z-VAD-FMK for 4 hrs followed by compound addition and measured after 6 hrs by western blot analysis; format: functional, cell-based
MDA-MB-231 [13] = experiment: Induction of apoptosis in human MDA-MB-231 cells assessed as proportion of early apoptotic cells at 0.63 uM measured after 5 hrs by AnnexinV-FITC/PI staining based flow cytometry (reference value: 3.35%); format: functional
MDA-MB-231 [14] = experiment: Antitumor activity against human MDA-MB-231 cells xenografted in BALB/c mouse assessed as decrease in Ki67 expression in tumor at 10 mg/kg, ip qd for 16 days by immunohistochemical staining based analysis; format: functional, organism-based; details: time 16.0 day
[15] = Toxicity in BALB/c mouse xenografted with human MDA-MB-231 cells assessed as morphological changes in heart at 10 mg/kg, ip qd for 16 days by Hematoxylin-Eosin staining based analysis; format: organism-based; details: in vivo, 384 h, time 16 day
MDA-MB-231 [16] = experiment: Induction of apoptosis in human MDA-MB-231 cells assessed as proportion of early apoptotic cells at 1.25 uM measured after 5 hrs by AnnexinV-FITC/PI staining based flow cytometry (reference value: 3.35%); format: functional
[17] = Selectivity index, ratio of IC50 for cytotoxicity against human MCF-10A cells to IC50 for antiproliferative activity against human MCF7 cells; format: toxicity, cell-based; details: MCF-10A cells versus MCF7 cells, read-out: Ratio IC50
MDA-MB-231 [18] = experiment: Induction of apoptosis in human MDA-MB-231 cells assessed as increase in Tunel-488 […] at 1 uM measured after 6 hrs by confocal microscopy; format: functional, cell-based
[19] = target: T1, Nuclear receptor subfamily 4immunitygroup A member 1; experiment: Binding affinity to His-tagged Nur77 ligand binding domain (unknown origin) by surface plasmon resonance assay
[20] = Toxicity in Zebra fish AB embryo assessed as mortality rate at 1.25 to 5 uM measured after 24 to 72 hrs; set-up: species or system Danio rerio; details: zebrafish, dose lower 1.25 µM, time lower 24 hrs, dose upper 5 µM, time upper 72 hrs
MDA-MB-231 [21] = experiment: Induction of apoptosis in human MDA-MB-231 cells assessed as proportion of late apoptotic cells at 5 uM measured after 5 hrs by AnnexinV-FITC/PI staining based flow cytometry (reference value: 2.55%); format: functional
MDA-MB-231 [22] = experiment: Induction of apoptosis in human MDA-MB-231 cells transfected with ctr siRNA assessed as late apoptotic cells at 2 uM measured after 6 hrs by AnnexinV-FITC/PI staining based flow cytometry (reference value: 3.97%); format: functional
[23] = Toxicity in BALB/c mouse xenografted with human MDA-MB-231 cells assessed as abnormal behaviour at 10 mg/kg, ip qd for 16 days; format: organism-based; details: in vivo, 384 h, time 16 day

Which results are given for CCN(CC)CCCNC(=O)c1cc2cc(Nc3nccc(-c4sc(NC)nc4C)n3)ccc2[nH]1?
Activity (MDA-MB-231 [1]): 16.69%; Activity (MDA-MB-231 [2]): Dose-Dependent Effect; IC50 (SW-620): 18.1 µM; Activity (MDA-MB-231 [3]): Active; Activity [4]: Non-Toxic; IC50 (HeLa): 9.15 µM; Activity (MDA-MB-231 [5]): 2.24%; selectivity ratio [6]: 45.7; Activity [7]: Active; Activity (MDA-MB-231 [8]): 38.14%; Activity (MDA-MB-231 [9]): Active; Activity [10]: Toxic; IC50 (MCF7): 0.72 µM; Activity [11]: Non-Toxic; Activity (MDA-MB-231 [12]): inactive; Activity (MDA-MB-231 [13]): 20.22%; Activity (MDA-MB-231 [14]): Active; Activity [15]: Non-Toxic; Activity (MDA-MB-231 [16]): 35.95%; selectivity ratio [17]: 66.7; Activity (MDA-MB-231 [18]): Active; Kd [19]: 0.091 µM; Activity [20]: Non-Toxic; Activity (MDA-MB-231 [21]): 21.84%; Activity (MDA-MB-231 [22]): 13.04%; Activity [23]: Non-Toxic
